Laboratory results from patent US8664267B2 (Academic Pharmaceuticals Incorporated, priority 2007, dated 2014).

What was measured:
[1] = system: dog; details: Torres-Arrault et al. 1984, cited from earlier work
[2] = administered intravenously; cited from earlier work
[3] = system: Coronary Occlusion (Rat)

Structure (SMILES) | cardiac depressant effect [1] | hypotension ([1]; dog) | onset of action and hemodynamic and electrophysiological effect [2] | dose-dependent suppression of arrhythmias compared with the saline control group [3]
CCCCCCCC/C=C\CCCCCCCC(=O)OCCOCC(OCCO)C1OCC(OCCO)C1OCCO (stereo not shown) [Tween-80, polysorbate 80] | potent cardiac depressant | causes hypotension | – | –
CCCCc1oc2ccccc2c1C(=O)c1cc(I)c(OCCN(CC)CC)c(I)c1 [amiodarone, 2-n-butyl-3-(3,5-diiodo-4-β-N-diethylaminoethoxy-benzoyl)benzofuran] | – | – | rapid onset of action causing profound hemodynamic and electrophysiological effect | significantly different
